Measurements reported in patent US20250282723A1, “AMYLOID TARGETING AGENTS AND METHODS OF USING THE SAME” (The Regents of the University of California, priority 2021, published 2025).
Values joined by “and” are separate entries in the source; they are usually repeats but may differ in a detail not shown here. Equal entries are not always repeated.

What was measured:
[1] = molecular target: T1, aggregated Aβ (1-42) peptides (Homo sapiens, UniProt P05067); test: Estimation of binding constant (KD) to aggregated Aβ (1-42) peptides; conditions: aggregated Aβ(1-42) 5 μM, increasing concentration of probe, 5% DMSO in nanopure water
T1 construct: Synthetic Aβ (1-42) peptide was purchased from Biopeptide, Co LLC; purchased Biopeptide, Co LLC (San Diego, California); host or cells: chemical synthesis
T1 sequence (P05067 672-713): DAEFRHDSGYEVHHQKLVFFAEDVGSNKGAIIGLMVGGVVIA
Protocol: (§1) Preparation of aggregated Aβ (1-42) peptides. Synthetic Aβ (1-42) peptide was purchased from Biopeptide, Co LLC (San Diego, California). Aggregated Aβ (1-42) was prepared as previously described.^26 Briefly, Aβ (1-42) was dissolved in 100% 1,1,1,3,3,3,-hexafluoro-2-propanol (HFIP) to a concentration of 1 mM and put on a shaker at room temperature (RT) for 24 hours. The solution was then diluted in cold nanopure water (2:1 H2O: HFIP). Aliquoted fractions were lyophilized for 3 days before dissolving in nanopure water to a concentration of 100 μM. Aggregated Aβ solutions were incubated and shaken at 37° C. for 3 days before use. The formation of soluble aggregates (67% fibrils as a mixture with 13% oligomers and 20% monomer) was confirmed using a standard thioflavin T (ThT) assay and by Sodium Dodecyl Sulphate-Polyacrylamide Gel Electrophoresis (SDS-PAGE) gel analysis (FIG. 11 and FIG. 12).
Estimation of Binding Constant (KD) to aggregated Aβ (1-42) peptides. Aggregated Aβ(1-42) at a final concentration of 5 μM (based on the molecular weight of monomer) was mixed with increasing concentration of each probe in 5% DMSO in nanopure water. KD's were determined as previously described.^21
(§2) Synthetic Aβ (1-42) peptide was purchased from Biopeptide, Co LLC (San Diego, California). Aggregated Aβ (1-42) was prepared as previously described.^32 Briefly, monomeric Aβ (1-42) was dissolved in 100% 1,1,1,3,3,3,-hexafluoro-2-propanol (HFIP) to a final concentration of 1 mM and dissolved on a shaker at RT for 24 hours. This solution was then diluted with cold nanopure water (2:1 H2O:HFIP) and aliquoted into fractions. These samples were then lyophilized for 3 days before dissolving in nanopure water to a final concentration of 100 μM. AD solutions were aggregated by incubating and shaking at 37° C. for 3 days before use. The formation of soluble aggregates was confirmed using a standard Thioflavin T (ThT) assay and by SDS-PAGE gel analysis.^1
(§3) Aggregated Aβ(1-42) or αS at a final concentration of 5 μM (based on the molecular weight of the monomer) was mixed with an increasing concentration of each probe in 5% DMSO in nanopure water. Kd's were calculated as previously described.^34 The measurements for each probe were repeated in technical triplicates and the averages are shown with standard deviations. Kd's for probes 1-3 with aggregated Aβ(1-42) have been reported previously.^31

aggregated αS [2] = molecular target: T2, aggregated αS (Homo sapiens, UniProt P37840); test: Estimation of binding constant (Kd) to aggregated αS; conditions: probes of FIG. 14; aggregated αS 5 μM, increasing concentration of probe, 5% DMSO in nanopure water
T2 construct: made in house; host or cells: E. coli BL21 (plasmid pET5α aSynWT)
Protocol: (§4) Expression and purification of recombinant α-synuclein was followed as reported previously.^32 Briefly, α-synuclein was purified from BL21 E. coli as described: A starter culture of transformed bacteria (pET5α aSynWT) (LB broth with ampicillin [final concentration: 100 μg/mL]) was incubated overnight. Following incubation, 25 mL of the started culture was added to a 500 mL mixture of LB broth and ampicillin. Protein expression was induced by addition of IPTG [0.119 g/500 mL] when an OD600 between 0.5-0.8 was achieved. After 4 h, flasks were centrifuged (5,000×g for 20 min) and the supernatant was removed. The pellets were then re-suspended in 20 mM Tris, 25 mM NaCl, 1 mM EDTA, pH 8.0, transferred into a flask, boiled for 1-2 minutes in a microwave, and boiled in a water bath (90° C.) for 30 minutes. Samples were then centrifuged (18,000×g for 30 min) and the supernatant was collected and filtered through a 0.2 μm filter. α-synuclein protein was further purified using 2×5 ml HiTrapQ HP anion exchange columns (GE, #17-1153-01) followed by Size Exclusion Column (Superdex 200, #28-9893-35). Pure α-synuclein determined by Coomassie and western blot were lyophilized and stored at −80° C. until use.
(§5) Aggregation of purified α-synuclein was followed as reported previously.^33 The lyophilized powder was dissolved to a final concentration of 100 μM in sodium phosphate buffer (50 mM, pH 7.4) with 0.1 mM EDTA and 0.02% sodium azide (w/v) and was aggregated at 37° C. with shaking at 500 rpm for 3 weeks. Fibrillization was confirmed by SDS-PAGE gel and standard ThT assay.
as §3

[3] = molecular target: T1, aggregated Aβ (1-42) peptides; test: Fluorescence excitation/emission and fluorescence enhancement of probes bound versus unbound to aggregated Aβ (1-42) peptides; type: binding; conditions: probe 4 μM; for Em (λmax) (with Aβ) / Ex (λmax) (with Aβ): aggregated Aβ (1-42) 5 μM; for Fold Increase with Aβ: fluorescence intensity with aggregated Aβ (1-42) 5 μM vs probe alone, at λmax of the amyloid-bound state
Protocol: as §1
(§6) Estimation of fluorescence enhancement of probes when bound versus unbound to aggregated Aβ (1-42) peptides. Aggregated Aβ (1-42) at a final concentration of 5 μM (based on the molecular weight of monomer) was mixed with each fluorescent probe at a final concentration of 4 μM in 5% DMSO in nanopure water. The solution (80 μL) was transferred to a black opaque 96 well plate and the fluorescence was read using a microplate reader. For all probes, the relative fluorescence enhancement of the bound versus unbound state was estimated by comparing the intensity at λmax of the amyloid-bound state.
as §2
(§7) Aggregated αS or Aβ(1-42) at a final concentration of 5 μM (based on the molecular weight of monomer) was mixed with each fluorescent probe at a final concentration of 4 μM in 5% DMSO in nanopure water. The solution (80 μL total volume) was transferred to a black opaque 96 well plate and the fluorescence excitation and emission were read using a microplate reader. For emission fluorescence enhancement, the relative fluorescence enhancement of the bound versus unbound state was estimated by comparing the fluorescence intensity at λmax of the amyloid-bound state.

aggregated αS [4] = molecular target: T2, aggregated αS; test: Fluorescence emission and fluorescence enhancement of probes bound versus unbound to aggregated αS; type: binding; conditions: probes of FIG. 14
Protocol: as §4, §5, §7

[5] = Quantum yield measurements; type: physicochemical; conditions: 5% DMSO/H2O, reference standard Coumarin 30
Protocol: Quantum Yield Measurements. To determine the quantum yield (QY) of compounds ARCAM, 1-5, a procedure that was similar to a previously reported protocol for estimating the QY for Thioflavin T^24 was used. Briefly, the absorbance spectrum of each probe (in 5% Dimethyl Sulfoxide (DMSO)/water (H2O)), in addition to the absorbance spectrum for the reference standard (Coumarin 30, QY=0.67)^27 was measured. The wavelength at which the two normalized absorbance curves intersected was used as the excitation wavelength. A serial dilution of each probe and the standard was made with absorbance values at the excitation wavelength in the range of 0 to 0.1 absorbance units. At each concentration, the emission spectra for each probe and the standard were measured. Technical triplicates of these experiments were performed for all probes, and the averages were recorded. From these emission spectra, the area under the curve was calculated and plotted against the absorbance at each concentration (FIGS. 3-7). The data were fitted to Equation 1 to obtain estimates for QY: […]
where QY represents the quantum yield, A represents the absorbance, E represents the integrated fluorescence emission, η represents the refractive index of the solvent^28,29, and the ‘p’ and ‘r’ subscripts signify the probe or the reference compound, respectively.
Quantum Yield ((D) for each probe was measured as described previously.^31 Briefly, we measured the absorbance spectrum of each probe in 5% DMSO/H2O, as well as the absorbance spectrum for the reference standard (Coumarin 30, =0.67 in Acetonitrile). Both normalized absorbance curves were plotted, and the wavelength of intersection was used as the excitation wavelength. A serial dilution was made for each probe and the standard with absorbance values at the excitation wavelength varying between of 0 to 0.1 absorbance units. At each concentration, the emission spectra for each probe and the standard were measured. Each experiment was repeated in technical triplicates for all probes, and the averages were recorded. The integrated fluorescence emission was calculated and plotted against the absorbance at each concentration. The data were fitted to Equation Si to obtain estimates for Φ: […]
where Φ represents the quantum yield, A represents the absorbance, E represents the integrated fluorescence emission, η represents the refractive index of the solvent, and the ‘p’ and ‘r’ subscripts signify the probe or the reference compound, respectively.

[6] = Fluorescence excitation and emission spectra of free (unbound) probes in aqueous solution; type: physicochemical; conditions: for Em (λmax) (Free) / Ex (λmax) (Free): free probe in aqueous solution; for fluorescence intensity of the free probe in aqueous solution compared to ARCAM (1): free probes in aqueous solution, FIG. 2
Protocol: as §6, §7

[7] = in Acetonitrile; cited from earlier work

| SMILES | Kd [1] | Em (λmax) (with Aβ) ([3]; 5% DMSO in nanopure water) | Ex (λmax) (with Aβ) ([3]; 5% DMSO in nanopure water) | Fold Increase with Aβ ([3]; 5% DMSO in nanopure water) | QY [5] | Em (λmax) (Free) [6] | Ex (λmax) (Free) [6] | fluorescence intensity of the free probe in aqueous solution compared to ARCAM (1) [6] | other results |
| --- | --- | --- | --- | --- | --- | --- | --- | --- | --- |
| CCCC1CCCCN1c1ccc2cc(/C=C(\C#N)C(=O)NCCOCCOCCOC)ccc2c1 (stereo not drawn) [Probe 4, (E)-2-cyano-N-(2-(2-(2-methoxyethoxy)ethoxy)ethyl)-3-(6-(2-propylpiperidin-1-yl)naphthalen-2-yl)acrylamide] |  |  |  |  |  |  |  |  | Kd ([1]; probes of FIG. 14): 4 ± 2.7 µM; Kd (aggregated αS [2]): 0.5 ± 0.1 µM; Emmax (with Aβ) ([3]; probes of FIG. 14, aggregated Aβ(1-42) 5 μM, 5% DMSO in nanopure water): 558 nm; FI with Aβ ([3]; probes of FIG. 14, fold increase of fluorescence, bound vs unbound, aggregated Aβ(1-42) 5 μM): 1.8 ± 0.2; Emmax (with αS) (aggregated αS [4]; aggregated αS 5 μM, probe 4 μM, 5% DMSO in nanopure water): 539 nm; FI with αS (aggregated αS [4]; fold increase of fluorescence, bound vs unbound, aggregated αS 5 μM, probe 4 μM): 5.2 ± 0.8; FI αS/Aβ (aggregated αS [4]; selectivity of fluorescence response to αS fibrils over Aβ fibrils): 2.9; Quantum Yield (Φ) ([5]; probes of FIG. 14): 0.0062; Emmax (Free) ([6]; probes of FIG. 14, free): 578 nm |
| COCCOCCOCCNC(=O)/C(C#N)=C(\C)c1ccc2cc(N3CCCCC3)ccc2c1 [Compound 2, (E)-2-cyano-N-(2-(2-(2-methoxyethoxy)ethoxy)ethyl)-3-(6-(piperidin-1-yl)naphthalen-2-yl)but-2-enamide] | 5 ± 1.7 µM | 547 ± 4 nm | 364 ± 6 nm | 3.5 fold and 3.5 ± 0.9 fold | 0.0016 ± 0.0005 | 601 ± 2 nm | 372 ± 14 nm | decreased in fluorescence intensity by two orders of magnitude |  |
| Cc1ccc2c(c1)sc(-c1ccc(N(C)C)cc1)[n+]2C.[Cl-] [ThT, Thioflavin T, reference compound] |  |  |  |  | 0.0006 |  |  |  |  |
| COCCOCCOCCNC(=O)C(C#N)=C(c1ccc2cc(N3CCCCC3)ccc2c1)C(F)(F)F (mixture of isomers) [Compound 3, (Z)-2-cyano-4,4,4-trifluoro-N-(2-(2-(2-methoxyethoxy)ethoxy)ethyl)-3-(6-(piperidin-1-yl)naphthalen-2-yl)but-2-enamide] | 3.7 ± 1.1 µM | 514 ± 6 nm | 410 ± 5 nm | 5.4 fold and 5.4 ± 0.9 fold | 0.0012 ± 0.0004 | 547 ± 5 nm | 419 ± 4 nm | decreased in fluorescence intensity by two orders of magnitude |  |
| CCN(CC)c1ccc2cc(-c3nc4ccccc4n3C)c(=O)oc2c1 [Coumarin 30] |  |  |  |  |  |  |  |  | quantum yield of the reference standard [7]: 0.67 |
